In patent US4556565A, “Sweetener composition, process for making the same, and comestibles comprising said sweetener composition” (priority 1983, dated 1985):
Where a SMILES comes first, the peptide text is derived from it.

Experiments:
[1] = Residual APM in chewing gum on standing at 32° C.; type: physicochemical; conditions: calcium carbonate in the chewing gum base
[2] = cited from earlier work
bacteria in the mouth = conditions: cited from earlier work
[3] = Cold water solubility test (time to dissolve); type: physicochemical; conditions: 15 g/100 ml of water, 10° C., magnetic stirrer (3 turns/sec)
Excerpt: A magnetic stirrer (3 turns/sec) was used to agitate each sample.

Stability of APM in chewing gum containing calcium carbonate [1]	Cold water solubility of sweetener compositions [3] [s]	Compound	Dispersibility or solubility in water [2]	Dental caries causing effect / bacterial action in the mouth (bacteria in the mouth)
rapidly decomposed by calcium carbonate	900	COC(=O)[C@H](Cc1ccccc1)NC(=O)[C@@H](N)CC(=O)O [APM, L-aspartyl-L-phenylalanine methyl ester] (H-Asp-Phe-OMe)	low dispersibility or solubility in water	low dental caries causing effect
–	–	OC[C@@H](O)[C@@H](O[C@H]1O[C@H](CO)[C@@H](O)[C@H](O)[C@H]1O)[C@H](O)[C@@H](O)CO [hydrogenated maltose]	–	not subjected to the bacterial action in the mouth
